The record followed here is patent US20070232492A1, “Herbicidal Composition” (Ishihara Sangyo Kaisha, LTD., priority 2004, published 2007).

Common to all, as to type: in vivo
For data set [1], the system named is rice (Oryza sativa var. Nihonbare). The experiment in a line: Growth inhibition (phytotoxicity) of transplanted rice by compound A2 with or without compound D, application under submerged condition, visual rating 7 and 21 days after application. Conditions: Compound A2 60 g/ha, Compound D not applied, applied 5 days after implantation. An excerpt:
(§1) Growth inhibition rate (%)=0% (equivalent to the non-treated area) to 100% (complete kill)
Paddy field soil was put into a 1/500,000 hectare pot, harrowed and irrigated with a depth of 3 cm. On the next day, rice (Oryza sativa var. Nihonbare) at 2 leaf stage was implanted with a depth of 3 cm. A wettable powder of compound A2 and a wettable powder of compound D were, respectively, diluted with water and applied under submerged condition 5 days after implantation so that the active ingredients became the prescribed amounts, respectively. The state of growth of rice was visually observed 7 days and 21 days after application, and the growth inhibition rate (%) was evaluated in the same is manner as in the above Test Example 1.

In data set [2] the test system is barnyardgrass (Echinochloa oryzicola vasing). In words: Growth inhibition of barnyardgrass in paddy soil pots, foliar application with a small sprayer, visual rating and Colby expected value. Conditions: 3.0 to 3.3 leaf stage, 21 days after application.
Text: (§2) When the herbicidal activity in a case where two active ingredients are combined, is larger than the simple sum of the respective herbicidal activities of the two active ingredients (the expected activity), it is called a synergistic effect. The activity expected by the combination of two active ingredients can be calculated as follows (Colby S. R., “Weed”, vol. 15, p. 20-22, 1967). E=p+q−(p×q÷100) where p: growth inhibition rate when treated with x (g/a) of herbicide X,
(§3) q: growth inhibition rate when treated with y (g/a) of herbicide Y,
(§4) E: growth inhibition rate expected when treated with x (g/a) of herbicide X and y (g/a) of herbicide Y.
(§5) Namely, when the actual growth inhibition rate (observed value) is larger than the growth inhibition rate by the above calculation (expected value), the activity by the combination can be regarded as showing a synergistic effect.
as §1
Paddy field soil was put into a 1/10,000 are pot, and seeds of barnyardgrass (Echinochloa oryzicola vasing) were sown and left to stand under an irrigated condition with a water depth of 3.5 cm. When barnyardgrass reached 3.0 to 3.3 leaf stage, a wettable powder of compound A2 and a water-based suspension of compound (B11.1) were, respectively, diluted with water in an amount of 1,000 liter/ha, followed by foliar application with a small sprayer. The state of growth was visually observed 21 days after application, and evaluation and calculation were carried out in the same manner as in the above Test Example 1.

Data set [3] relates to Japanese bulrush (Scirpus juncoides). In words: Growth inhibition of Japanese bulrush in paddy soil pots, application under submerged condition, visual rating and Colby expected value. Summed up: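 Scirpus juncoides was sown in paddy soil pots flooded to 3.5 cm and treated under submerged conditions at the 2–3 leaf stage with water-diluted formulations, alone or in combination. Growth inhibition was rated visually 10 or 19 days after application (0% untreated to 100% complete kill). Expected combination values come from Colby's formula.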

The test system of data set [4] is false pimpernel (Lindernia pyxidaria), abunome (Dopatrium junceum), long stem waterwort (Elatine triandra SCHK.) and toothcup (Rotala india). In words: Growth inhibition of mixed broadleaf paddy weeds in paddy soil pots, application under submerged condition, visual rating and Colby expected value. Conditions: 0.22 g/a.
Text: as §2, §3, §4, §5, §1
(§6) Paddy field soil was put into a 1/1,700 are pot, and mixed seeds of false pimpernel (Lindernia pyxidaria), abunome (Dopatrium junceum), long stem waterwort (Elatine triandra SCHK.) and toothcup (Rotala india) were sown and left to stand under an irrigated condition with a water depth of 3.5 cm. When false pimpernel reached one leaf-pair stage, wettable powders of compound A2 and compound (B1.2) were, respectively, diluted with water and applied under submerged condition so that the active ingredients became the prescribed amounts, respectively. The state of growth was visually observed 21 days after application, and evaluation and calculation were carried out in the same manner as in the above Test Example 1.
(§7) Paddy field soil was put into a 1/1,700 are pot, and mixed seeds of false pimpernel (Lindernia pyxidaria), abunome (Dopatrium junceum), long stem waterwort (Elatine triandra SCHK.) and toothcup (Rotala india) were sown and left to stand under an irrigated condition with a water depth of 3.5 cm. When false pimpernel reached two leaf-pair stage, a wettable powder of compound A2 and an emulsifiable concentrate of compound (B8.1) were, respectively, diluted with water and applied under submerged condition so that the active ingredients became the prescribed amounts, respectively. The state of growth was visually observed 22 days after application, and evaluation and calculation were carried out in the same manner as in the above Test Example 1.

Assay in data set [5]: as above
Conditions: mixed broadleaf paddy weeds, soil, 528 h, read-out: Growth inhibition rate (%) Observed.
Text: as §2, §3, §4, §5, §1, §6, §7

The mark [6] stands for this setting: Schoenoplectiella juncoides, soil, 696 h, read-out: Growth inhibition rate (%) Observed.

For `COCC(=O)OC(c1ncccc1S(=O)(=O)NC(=O)Nc1nc(OC)cc(OC)n1)C(C)F` (stereo not shown) [Compound A2, flucetosulfuron], the “Growth inhibition rate (%) (average) 7 days” value in data set [1] (7 days after application) is listed as 23%. The “Growth inhibition rate (%) (average) 21 days” value in data set [1] (21 days after application) is 33%. Further, the “Growth inhibition rate (%) Observed” value stood at 23% in data set [2] (0.083 g/a); 50% in data set [2] (0.11 g/a); 60% in data set [2] (0.165 g/a); 43% in data set [3] (0.025 g/a, 2 leaf stage, 19 days after application, Test Example 33); 27% in data set [3] (0.025 g/a, 2.3 to 2.6 leaf stage, 10 days after application); 70% in data set [3] (0.05 g/a, 2 leaf stage, 19 days after application, Test Example 33). Further, the “Growth inhibition rate (%) Observed” value in data set [3] (0.05 g/a, 2.3 to 2.6 leaf stage, 10 days after application) came out at 40%; in data set [3] (0.075 g/a, 2.6 to 3.1 leaf stage, 22 days after application, Test Examples 50, 58), 94%; in data set [3] (0.1 g/a, 2.3 to 2.6 leaf stage, 10 days after application) it was 63%; in data set [3] (0.125 g/a, 2 leaf stage, 19 days after application, Test Example 34), 50%; in data set [3] (0.15 g/a, 2.6 to 3.1 leaf stage, 22 days after application, Test Examples 50, 58), 93%; in data set [3] (0.167 g/a, 2 leaf stage, 19 days after application, Test Example 34) it was 79%. Also, the “Growth inhibition rate (%) Observed” value in data set [3] (0.22 g/a, 2.2 to 2.8 leaf stage, 29 days after application, Test Example 44) is recorded as 87%; in data set [3] (1.5 g/a, 2 leaf stage, 19 days after application, Test Example 34), 87%; in data set [3] (8.3 g/ha, 3 leaf stage, 19 days after application, Test Example 37), 70%; in data set [4] (false pimpernel one leaf-pair stage, 21 days after application), 90%; in data set [4] (false pimpernel two leaf-pair stage, 22 days after application) it was 65%.

Broadly, the inhibition is the relative decrease from the control value, in per cent. `CCS(=O)(=O)Oc1ccc2c(c1)C(C)(C)CO2` [Compound (B8.1), benfuresate]: in data set [3] (setting [6]), the inhibition at 600 g/ha was 90%, the inhibition at 900 g/ha turned out to be 89% and the inhibition at 1200 g/ha came out at 89%. Besides, the inhibition at 1200 g/ha in data set [5] is 70%.

As for `CCCOCCN(C(=O)CCl)c1c(CC)cccc1CC` [Compound (B3.1), pretilachlor], in data set [3] (Schoenoplectiella juncoides, soil, 240 h, 0.5 g/a, 2.3 to 2.6 leaf stage, 10 days after application, read-out: Growth inhibition rate (%) Observed), the inhibition at 50 g/ha was determined as 3%. Moreover, in data set [3] (Schoenoplectiella juncoides, soil, 240 h, 1 g/a, 2.3 to 2.6 leaf stage, 10 days after application, read-out: Growth inhibition rate (%) Observed), the inhibition at 100 g/ha turned out to be 10%.
